Reference: publication PMC7730235, “Discovery of a Novel Class of Covalent Dual Inhibitors Targeting the Protein Kinases BMX and BTK” (International Journal of Molecular Sciences, 2020)

Legend:
[1] = molecular target: T1, Full length BMX (C-terminal NanoLuc fusion) (Homo sapiens, UniProt P51813); experiment: Cellular NanoBRET target engagement assay in HEK293T cells; assay type: cell-based; conditions: 0.5 µM Tracer K4, 2 h incubation
T1 construct: Full length BMX and BTK was cloned into pFC32K; expressed in transfected cells; host or cells: HEK293T
T1 sequence (P51813 1-675): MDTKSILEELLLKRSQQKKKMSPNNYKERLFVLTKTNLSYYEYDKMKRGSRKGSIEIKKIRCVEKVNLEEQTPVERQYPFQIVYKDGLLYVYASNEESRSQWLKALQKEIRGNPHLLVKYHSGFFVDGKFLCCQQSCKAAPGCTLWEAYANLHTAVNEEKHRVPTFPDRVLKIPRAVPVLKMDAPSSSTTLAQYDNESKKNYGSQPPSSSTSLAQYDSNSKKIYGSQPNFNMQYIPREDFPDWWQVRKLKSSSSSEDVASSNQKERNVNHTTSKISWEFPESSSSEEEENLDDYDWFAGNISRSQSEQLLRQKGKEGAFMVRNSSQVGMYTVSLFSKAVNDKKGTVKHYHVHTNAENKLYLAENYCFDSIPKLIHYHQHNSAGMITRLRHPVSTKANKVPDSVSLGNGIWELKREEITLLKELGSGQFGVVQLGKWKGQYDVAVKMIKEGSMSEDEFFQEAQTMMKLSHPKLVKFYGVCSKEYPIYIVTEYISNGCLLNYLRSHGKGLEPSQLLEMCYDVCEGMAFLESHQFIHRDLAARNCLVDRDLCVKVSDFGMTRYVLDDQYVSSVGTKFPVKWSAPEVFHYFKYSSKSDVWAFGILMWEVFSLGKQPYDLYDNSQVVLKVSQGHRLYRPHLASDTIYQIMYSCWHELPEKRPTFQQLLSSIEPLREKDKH
Experimental: (§1) Full length BMX and BTK was cloned into pFC32K (Promega, Madison, WI, USA) for expression of a C-terminal NanoLuc fusion. The plasmids were transfected into HEK293T cells cultured in DMEM (Gibco, Waltham, MA, USA) supplemented with 10% fetal bovine serum (Gibco, Waltham, MA, USA) and Penicillin/Streptamycin (Gibco, Waltham, MA, USA). NanoBRET assays were performed using the protocol published previously. Briefly, after transfection and 20 h incubation cells were harvested and subsequently resuspended in OptiMEM (Gibco, Waltham, MA, USA). Cells were aliquoted onto […] (Greiner, Kremsmünster, Austria), and inhibitors as well as 0.5 µM Tracer K4 (Promega) for BMX or 0.5 µM Tracer K5 (Promega, Madison, WI, USA) for BTK were added using an ECHO acoustic dispenser. The plates were incubated at 37 °C with 5% CO2 for 2 h prior to the addition of both NanoBRET NanoGlo substrate (Promega, Madison, WI, USA) and extracellular NanoLuc inhibitor. BRET luminescence (450 nm for donor emission and 610 nm for BRET signal) was measured using PHERAstar FSX plate reader (BMG Labtech, Ortenberg, Germany). Milli-BRET units (mBU) were calculated as a ratio between BRET signal and the overall measured luminescence. A dose–response fitting was applied and IC50 values were calculated using the Prism software. […] Experiments were performed as tripicates and repeated at least three times.

[2] = molecular target: T2, Full length BTK (C-terminal NanoLuc fusion) (Homo sapiens, UniProt Q06187); experiment: as above; assay type: cell-based; conditions: 0.5 µM Tracer K5, 2 h incubation
T2 construct: Full length BMX and BTK was cloned into pFC32K; expressed in transfected cells; host or cells: HEK293T
T2 sequence (Q06187 whole entry, the tested form may be a part): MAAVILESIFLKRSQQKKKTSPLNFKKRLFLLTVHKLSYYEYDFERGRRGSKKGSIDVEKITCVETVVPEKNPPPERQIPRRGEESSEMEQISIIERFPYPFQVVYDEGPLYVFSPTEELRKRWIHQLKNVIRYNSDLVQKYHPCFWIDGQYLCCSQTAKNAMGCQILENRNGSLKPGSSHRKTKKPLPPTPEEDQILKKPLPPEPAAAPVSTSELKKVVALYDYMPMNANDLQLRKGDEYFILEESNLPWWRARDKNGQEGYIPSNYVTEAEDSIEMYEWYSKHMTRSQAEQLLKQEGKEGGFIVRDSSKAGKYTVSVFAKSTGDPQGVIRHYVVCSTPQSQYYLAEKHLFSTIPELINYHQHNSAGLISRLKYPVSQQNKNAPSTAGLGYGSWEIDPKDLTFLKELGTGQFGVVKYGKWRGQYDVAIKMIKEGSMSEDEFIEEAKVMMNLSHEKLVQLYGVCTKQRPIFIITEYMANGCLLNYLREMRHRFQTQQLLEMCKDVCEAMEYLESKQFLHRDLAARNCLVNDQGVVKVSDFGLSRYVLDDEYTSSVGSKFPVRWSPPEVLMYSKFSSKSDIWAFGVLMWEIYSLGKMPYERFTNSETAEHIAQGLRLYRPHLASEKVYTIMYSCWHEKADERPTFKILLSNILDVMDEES
Experimental: as §1

[3] = molecular target: T3, HER4 (Homo sapiens, UniProt Q15303); experiment: Radiometric kinase assay (Reaction Biology HotSpot); assay type: biochemical; conditions: [ATP] = 10 μM; for remaining activity at 0.2 µM: 200 nM compound, duplicate mean, read-out: Residual Activity @ 200 nM, HER4
T3 construct: purchased Reaction Biology Corporation
T3 sequence (Q15303 26-1308): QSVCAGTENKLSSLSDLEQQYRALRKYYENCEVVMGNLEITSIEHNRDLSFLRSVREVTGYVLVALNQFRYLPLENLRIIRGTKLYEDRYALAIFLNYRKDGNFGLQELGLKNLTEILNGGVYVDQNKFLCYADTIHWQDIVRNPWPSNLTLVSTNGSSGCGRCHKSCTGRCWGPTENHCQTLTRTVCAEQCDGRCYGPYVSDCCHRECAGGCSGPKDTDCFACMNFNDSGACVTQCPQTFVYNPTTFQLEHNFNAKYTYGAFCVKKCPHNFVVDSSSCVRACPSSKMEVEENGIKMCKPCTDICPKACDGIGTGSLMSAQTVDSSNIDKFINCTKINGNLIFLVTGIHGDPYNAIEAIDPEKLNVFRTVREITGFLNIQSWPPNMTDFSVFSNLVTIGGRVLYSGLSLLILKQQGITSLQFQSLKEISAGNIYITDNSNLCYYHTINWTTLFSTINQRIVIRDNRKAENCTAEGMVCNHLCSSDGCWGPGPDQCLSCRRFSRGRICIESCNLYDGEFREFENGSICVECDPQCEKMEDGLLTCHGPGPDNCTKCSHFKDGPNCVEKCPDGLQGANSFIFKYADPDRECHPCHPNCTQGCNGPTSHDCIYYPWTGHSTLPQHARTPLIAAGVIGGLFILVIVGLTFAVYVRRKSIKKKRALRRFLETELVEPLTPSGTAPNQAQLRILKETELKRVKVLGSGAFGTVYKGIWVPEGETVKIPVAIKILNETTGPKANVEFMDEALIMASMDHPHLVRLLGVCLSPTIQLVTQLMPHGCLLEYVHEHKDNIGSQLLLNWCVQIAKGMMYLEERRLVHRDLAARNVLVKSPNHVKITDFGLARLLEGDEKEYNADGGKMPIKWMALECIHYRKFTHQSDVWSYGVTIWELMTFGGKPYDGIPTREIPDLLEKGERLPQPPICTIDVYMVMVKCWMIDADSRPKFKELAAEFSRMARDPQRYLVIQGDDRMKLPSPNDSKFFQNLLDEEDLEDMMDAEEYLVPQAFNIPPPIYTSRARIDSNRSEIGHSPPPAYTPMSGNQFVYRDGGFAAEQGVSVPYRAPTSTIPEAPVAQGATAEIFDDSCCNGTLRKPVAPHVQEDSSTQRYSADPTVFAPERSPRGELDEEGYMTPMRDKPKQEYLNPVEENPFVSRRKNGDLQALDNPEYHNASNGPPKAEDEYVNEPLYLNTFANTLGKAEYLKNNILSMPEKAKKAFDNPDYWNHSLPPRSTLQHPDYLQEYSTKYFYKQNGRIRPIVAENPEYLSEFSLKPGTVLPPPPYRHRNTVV
Experimental: (§2) If not mentioned differently, in vitro profiling of compounds was performed at Reaction Biology Corporation using the HotSpot™ assay platform.

[4] = molecular target: T4, HER2 (Homo sapiens, UniProt P04626); experiment: as above; assay type: biochemical; conditions: [ATP] = 10 μM; for remaining activity at 0.2 µM: 200 nM compound, duplicate mean, read-out: Residual Activity @ 200 nM, HER2
T4 construct: purchased Reaction Biology Corporation
T4 sequence (P04626 23-1255): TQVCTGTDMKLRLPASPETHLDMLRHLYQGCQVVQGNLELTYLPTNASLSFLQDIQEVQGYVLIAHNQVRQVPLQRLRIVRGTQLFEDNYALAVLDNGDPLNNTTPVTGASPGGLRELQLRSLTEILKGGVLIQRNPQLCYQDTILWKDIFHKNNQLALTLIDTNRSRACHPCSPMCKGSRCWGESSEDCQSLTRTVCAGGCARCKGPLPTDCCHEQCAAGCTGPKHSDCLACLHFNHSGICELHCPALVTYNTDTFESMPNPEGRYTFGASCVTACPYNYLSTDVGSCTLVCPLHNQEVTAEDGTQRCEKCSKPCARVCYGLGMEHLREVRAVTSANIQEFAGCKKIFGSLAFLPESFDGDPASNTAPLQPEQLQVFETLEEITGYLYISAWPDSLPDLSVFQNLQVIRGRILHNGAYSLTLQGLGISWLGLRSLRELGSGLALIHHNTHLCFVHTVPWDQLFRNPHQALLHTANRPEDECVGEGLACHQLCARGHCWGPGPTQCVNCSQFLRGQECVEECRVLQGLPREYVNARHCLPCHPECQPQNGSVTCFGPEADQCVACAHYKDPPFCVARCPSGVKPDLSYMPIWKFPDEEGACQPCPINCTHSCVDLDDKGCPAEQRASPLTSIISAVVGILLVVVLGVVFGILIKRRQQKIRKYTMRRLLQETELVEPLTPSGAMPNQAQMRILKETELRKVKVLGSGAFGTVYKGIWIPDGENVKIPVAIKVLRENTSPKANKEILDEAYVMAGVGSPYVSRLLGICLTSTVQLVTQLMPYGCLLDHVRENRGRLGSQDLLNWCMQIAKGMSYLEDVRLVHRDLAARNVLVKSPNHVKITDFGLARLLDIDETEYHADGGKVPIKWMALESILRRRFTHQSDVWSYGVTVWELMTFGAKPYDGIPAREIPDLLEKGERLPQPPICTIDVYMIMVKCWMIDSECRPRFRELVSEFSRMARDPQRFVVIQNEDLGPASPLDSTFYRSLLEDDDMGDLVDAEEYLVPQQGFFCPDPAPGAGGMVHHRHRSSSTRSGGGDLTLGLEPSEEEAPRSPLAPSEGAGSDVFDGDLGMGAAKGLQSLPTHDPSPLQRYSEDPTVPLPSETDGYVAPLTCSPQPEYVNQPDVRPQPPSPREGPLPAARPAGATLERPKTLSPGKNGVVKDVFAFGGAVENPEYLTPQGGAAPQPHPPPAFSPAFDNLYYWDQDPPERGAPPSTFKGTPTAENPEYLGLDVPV
Experimental: as §2

[5] = molecular target: T5, TXK (Homo sapiens, UniProt P42681); experiment: as above; assay type: biochemical; conditions: for remaining activity at 0.2 µM: read-out: Residual Activity @ 200 nM, TXK; for IC50: five-dose singlicate
T5 construct: purchased Reaction Biology Corporation
T5 sequence (P42681 1-527): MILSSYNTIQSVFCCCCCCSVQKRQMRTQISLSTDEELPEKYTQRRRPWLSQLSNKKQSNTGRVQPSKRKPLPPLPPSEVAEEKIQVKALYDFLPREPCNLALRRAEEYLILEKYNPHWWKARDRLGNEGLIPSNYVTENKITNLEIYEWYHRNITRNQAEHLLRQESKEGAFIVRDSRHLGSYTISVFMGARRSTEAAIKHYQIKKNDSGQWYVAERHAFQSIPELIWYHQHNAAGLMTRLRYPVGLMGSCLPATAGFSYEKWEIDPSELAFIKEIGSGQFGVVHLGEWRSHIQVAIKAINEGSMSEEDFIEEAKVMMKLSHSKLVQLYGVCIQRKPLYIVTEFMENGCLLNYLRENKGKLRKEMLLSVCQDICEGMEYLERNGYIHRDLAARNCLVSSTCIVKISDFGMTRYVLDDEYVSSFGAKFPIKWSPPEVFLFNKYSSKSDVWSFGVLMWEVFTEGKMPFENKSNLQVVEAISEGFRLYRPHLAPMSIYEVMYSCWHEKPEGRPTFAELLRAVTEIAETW
Experimental: as §2

[6] = molecular target: T6, kinase domain of BMX (Homo sapiens, UniProt P51813); experiment: Thermal shift (ΔTm) assay; assay type: binding; conditions: 2 μM kinase domain, 10 μM inhibitor; mean ± SD of at least three measurements
T6 construct: The kinase domains of JAK3 and BMX at 2 μM
Experimental: (§3) The kinase domains of JAK3 and BMX at 2 μM were mixed with the inhibitors at 10 μM, and subsequently SyPRO orange dye (Invitrogen Carlsbad, CA, USA) was added. The thermal shift assay and data evaluation were performed as described previously using a Real-Time PCR Mx3005p machine (Stratagene, La Jolla, CA, USA).

[7] = molecular target: T7, kinase domain of JAK3 (Homo sapiens, UniProt P52333); experiment: Thermal shift (ΔTm) assay; assay type: binding; conditions: 2 μM kinase domain, 10 μM inhibitor; mean ± SD of at least three measurements
T7 construct: The kinase domains of JAK3 and BMX at 2 μM; made in house
T7 sequence (P52333 822-1111 limits assumed): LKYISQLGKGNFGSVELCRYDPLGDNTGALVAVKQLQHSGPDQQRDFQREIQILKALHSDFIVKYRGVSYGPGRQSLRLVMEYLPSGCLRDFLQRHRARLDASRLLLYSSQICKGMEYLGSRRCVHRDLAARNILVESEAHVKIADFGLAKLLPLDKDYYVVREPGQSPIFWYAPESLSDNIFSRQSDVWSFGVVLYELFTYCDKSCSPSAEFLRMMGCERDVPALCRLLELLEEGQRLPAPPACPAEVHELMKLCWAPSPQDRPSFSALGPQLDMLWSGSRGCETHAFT
Experimental: as §3

[8] = 200 nM compound, duplicate mean, [ATP] = 10 μM
[9] = radiometric HotSpot, [ATP] = 10 μM
[10] = radiometric HotSpot, five-dose singlicate

IC50 [1] [nM]	IC50 [2] [nM]	remaining activity at 0.2 µM [3] [%]	remaining activity at 0.2 µM [4] [%]	remaining activity at 0.2 µM [5, 8] [%]	ΔTm at 10 µM [6] [°C]	ΔTm at 10 µM [7] [°C]	IC50 [5, 9] [nM]	remaining activity at 1 µM ([5]; 1 µM compound, radiometric HotSpot, read-out: residual activity at 1 µM, TXK) [%]	Residual Activity @ 200 nM, TXK [5, 8] [%]	IC50 [3, 10] [nM]	IC50 [4, 10] [nM]	SMILES
26 ± 11	15 ± 2	66.1	95	1.8	–	–	–	–	–	–	–	C=CC(=O)Nc1cccc(-c2c[nH]c3ncccc23)c1 [Compound 9a, N-(3-(1H-pyrrolo[2,3-b]pyridin-3-yl)phenyl)acrylamide]
765 ± 283	283 ± 24	66.6	97	3.2	10.49 ± 0.09	21.07 ± 0.03	28	–	–	–	–	C=CC(=O)Nc1cccc(-c2c[nH]c3ncc(C(N)=O)cc23)c1 [Compound 10a, 3-(3-acrylamidophenyl)-1H-pyrrolo[2,3-b]pyridine-5-carboxamide]
6070 ± 1830	2070 ± 32	–	–	–	5.31 ± 0.18	9.12 ± 0.02	> 1000	72	–	–	–	C=CC(=O)Nc1cccc(-c2c[nH]c3ncc(C(=O)NC4CCCC4)cc23)c1 [Compound 11a, 3-(3-acrylamidophenyl)-N-cyclopentyl-1H-pyrrolo[2,3-b]pyridine-5-carboxamide]
> 10000	8210 ± 3460	95.4	> 100	89	–	–	–	–	88.8	–	–	CCC(=O)Nc1cccc(-c2c[nH]c3ncc(NC(=O)C4CCCC4)cc23)c1 [Compound 12b, N-(3-(3-propionamidophenyl)-1H-pyrrolo[2,3-b]pyridin-5-yl)cyclopentanecarboxamide]
3 ± 1	9 ± 1	4.7	41.1	0.3	11.52 ± 0.08	7.36 ± 0.44	10	–	–	8.5	118	C=CC(=O)Nc1cccc(-c2c[nH]c3ncc(NC(=O)c4cccs4)cc23)c1 [Compound 12c, N-(3-(3-acrylamidophenyl)-1H-pyrrolo[2,3-b]pyridin-5-yl)thiophene-2-carboxamide]
